Data taken from patent US20200000834A1, “POLYPHENOL GLYCOSIDE-CONTAINING COMPOSITION” (SUNSTAR INC., priority 2018, published 2020).

Key:
AMPK = conditions: known as; cited from earlier work
[1] = system: ACC (acetyl-CoA carboxylase); test: ACC phosphorylation (pACC/tACC) by western blotting in C2C12 myotubes; type: cell-based, mouse; conditions: single use or combination in a specific mass ratio
Procedure: The resultant was used in the following experiment. Since trifolin and astragalin have the same molecular weights, their concentration ratios are the same as the mass ratios. A medium without any addition was used as a negative control, and a medium containing AICAR (final concentration: 2 mM) was used as a positive control. AICAR is a substance that is metabolized to an analog of AMP when taken in a cell.
A mouse skeletal myotube cell line (C2C12) was inoculated in a 6-well cell culture plate. The cell line was cultured in a DMEM medium containing 10% fetal bovine serum and a 1% antibacterial agent at 37° C. in the presence of 5% carbon dioxide for 3 days. […] The protein concentration of each supernatant was measured. […]
After SDS-PAGE, the protein was transferred to a PVDF membrane, and blocking was performed. […] After sufficient washing, chemiluminescence (band) on the membrane was detected using a CCD camera imager (produced by GE Healthcare) (FIG. 1). The band intensity was quantified using image J (NIH). The degree of the activity (i.e., “phosphorylated AMPK/total AMPK (pAMPK/tAMPK)” or “phosphorylated ACC/total ACC (pACC/tACC)”) was expressed as a relative value with the value of the negative control being defined as 1 (FIG. 2a and FIG. 2b).

| Structure (SMILES) | AMPK activation in skeletal muscle (AMPK) | ACC phosphorylation promotion (ACC inactivation promotion) effects [1] |
| --- | --- | --- |
| NC(=O)c1ncn([C@@H]2O[C@H](CO)[C@@H](O)[C@H]2O)c1N [AICAR] | significantly activating AMPK |  |
| O=c1c(O[C@@H]2O[C@H](CO)[C@H](O)[C@H](O)[C@H]2O)c(-c2ccc(O)cc2)oc2cc(O)cc(O)c12 [trifolin, kaempferol-3-O-galactoside] |  | almost no effects |
